Data published in patent US20190350907A1, “METHODS AND PHARMACEUTICAL COMPOSITIONS FOR REDUCING CD95- MEDIATED CELL MOTILITY” (INSERM (INSTITUT NATIONAL DE LA SANTÉ ET DE LA RECHERCHE …, priority 2017, published 2019).
Entries after “also recorded” stand apart in the source; their conditions may differ.

How the values were obtained:
CD95/PLCγ1 interaction = target: T1, CD95/PLCγ1 interaction (Homo sapiens, UniProt P19174); experiment: Renilla luciferase protein-fragment complementation assay (PCA), CD95-CID/PLCγ1-SH3; format: cell-based; settings: result in words
T1 construct: The PLCγ1-SH3 domain (aa 790-851) (C); expressed in transfected cells; host or cells: HEK293T
T1 sequence (P19174 790-851): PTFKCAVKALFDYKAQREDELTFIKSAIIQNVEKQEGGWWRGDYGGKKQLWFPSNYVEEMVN
Experimental: FIG. 1. […] A. Schematic representation of the protein-fragment complementation assay used with CD95-CID or -DD fused to F2 and PLCγ1-SH3 or FADD-DD fused to F1 to identify inhibitors from the Prestwick library. The Renilla luciferase enzyme was divided into amino-terminal and carboxy-terminal fragments (yellow domains) and fused to the indicated domains. B. Compounds from the Prestwick library were tested against CD95/PLCγ1 or CD95/FADD PCA. […] Inhibition of CD95/FADD interaction is also assessed.
Light emission indicates refolding of the luciferase and reconstitution of enzyme activity through protein/protein interactions. […] Data represent means±SD of three independent experiments. […] Then, the indicated peptides fused with or without the cell-penetrating domain TAT were incubated at the indicated concentrations for 4 hrs and luminescence was assessed. Data represent means±SD of three independent experiments. […].
HEK293T cells were electroporated with 5 μg of DNA using BTM-830 electroporation generator (BTX Instrument Division, Harvard Apparatus) with 10 μg of DNA. Transfected cells were cultured for 24 hrs prior to protein complementation assay analyses as previously described (17). Briefly, transfected cells (10^6) were washed, resuspended in 100 μl PBS and deposited in OptiPlate-96 (PerkinElmer, Waltham, Mass., USA). Coelenterazine-h (5 μM, Sigma) was injected to each well and renilla luciferase activity was monitored for the first 10 seconds using Infinite200Pro (Tecan, Männedorf, Switzerland).
A peptide consisting of the cell-penetrating domain of TAT fused to CID (TAT-CID) binds the SH3 domain of PLCγ1 and thereby, prevents PLCγ1/CD95 interaction and the subsequent induction of the Ca^2+ response (16). […] Briefly, the Renilla luciferase enzyme was divided into two fragments (F1 and F2 fragments). […] Interaction of CD95 with PLCγ1 or FADD allows the reconstitution of RLuc and subsequent light emission (FIG. 1A). The chemical Prestwick library was screened against these PCAs (FIG. 1B). […] These molecules are designated CID inhibitors or CIDINH.

activated PBLs = experiment: CD95-mediated cell migration / endothelial transmigration of activated PBLs (Boyden chamber); format: cell-based, human; settings: result in words
Experimental: FIG. 3. Drugs inhibit CD95-mediated Ca′ response and cell migration. A. Activated PBLs were loaded with FuraPE3-AM (1 μM) and pre-treated for 1 h with non-toxic concentrations of indicated compounds. T-cells were then stimulated with cl-CD95L (100 ng/mL; arrow). Ratio values (R) were normalized to pre-stimulated values (R0) to yield R/R0 values. Data represent means±the SD. B. Left panel: using Boyden chamber assay, cell migration of parental H9 cells and their counterpart lacking CD95 (CD95-KO) was assessed. Right panel: activated PBLs were pre-incubated in the presence or absence of the indicated drugs for 1 hour using non-toxic concentration and the CD95-mediated cell migration was assessed by Boyden chambers. C. Th17 cells were sorted from blood of healthy donors (peripheral blood mononuclear cell). FACS analyses showing the efficiency of Th17 (CCR6^+ CXCR3^−) cell sorting from healthy donors PBMCs. D. Th17 cells were pre-incubated in the presence or absence of the indicated drugs for 1 hour using non-toxic concentration and cell migration was assessed by Boyden chambers. After membrane hydration of Boyden chambers (Millipore, Molsheim, France) containing 8 μm pore membranes, 10^5 cells were added to the top chamber. The bottom chamber was filled with low serum (1%)-containing medium in the presence or absence of cl-CD95L (100 ng/ml). Cells were incubated for 24 h. To quantify invasion, cells were fixed with methanol and stained with Giemsa. Stained cells were then removed from the top-side of the membrane using a cotton-tipped swab and five representative pictures for each insert were taken of the invading cells from the reverse side. For each experiment, invading cells were lysed and absorbance at 560 nm was measured. Membranes (3 μm pore size) of a Boyden chamber were hydrated in sterile D-PBS (Millipore, Molsheim, France). Thereafter, activated T-lymphocytes (10^6) were added to the top chamber on a confluent monolayer of HUVEC in a low serum (1%)-containing medium. The bottom chamber was filled with low serum (1%)-containing medium in presence or absence of 100 ng/ml of cl-CD95L. In experiments using human sera, 500 μl of serum from either healthy donors or SLE patients was added to the lower chamber. Cells were cultured for 24 h at 37° C. in a 5% CO2, humidified incubator. Transmigrated cells were counted in the lower reservoir by flow cytometry using a standard of 2.5×10^4 fluorescent beads (Flow-count, Beckman Coulter).

[1] = system: Tfh-dependent B cell activation; experiment: Tfh-dependent B-cell maturation co-culture (memory B cells with SEB-stimulated Tfh cells, s-CD95L); format: cell-based; settings: preincubation of Tfh cells
[2] = system: CD95-mediated Ca2+ signaling pathway in Tfh cells; experiment: CD95-mediated Ca2+ response in Tfh cells; format: cell-based, human; settings: Example 2; signal described for Th17 and circulating Tfh cells

Row | Structure (SMILES) | effect on interaction of CD95 with PLCγ1 (CD95/PLCγ1 interaction) | effect on endothelial transmigration of PBLs (activated PBLs) | effect on Tfh-dependent B cell activation [1] | effect on sCD95L-induced Ca2+ response [2]
1 | O=C(O)c1cc(-c2ccc(F)cc2F)ccc1O [diflunisal, 5-(2,4-difluorophenyl)-2-hydroxybenzoic acid] | efficiently prevented | inhibited |  | 
2 | CC(C)c1nc(CN(C)C(=O)N[C@H](C(=O)N[C@@H](Cc2ccccc2)C[C@H](O)[C@H](Cc2ccccc2)NC(=O)OCc2cncs2)C(C)C)cs1 [ritonavir, 1,3-thiazol-5-ylmethyl N-[(2S,3S,5S)-3-hydroxy-5-[[(2S)-3-methyl-2-[[methyl-[(2-propan-2-yl-1,3-thiazol-4-yl)methyl]carbamoyl]amino]butanoyl]amino]-1,6-diphenylhexan-2-yl]carbamate] | efficiently prevented; also recorded: prevents the PLCγ1 recruitment | inhibited | blocks | abrogated
